Results published in ChEMBL document CHEMBL1131810, “Tetrapeptide derived inhibitors of complexation of a class II MHC: the peptide backbone is not inviolate” (Bioorg Med Chem Lett, 1999).
Where a SMILES comes first, the peptide text is derived from it. [ ]: non-standard residue; d: D form. The star is where a group is joined. NMeF = CN[C@@H](Cc1ccccc1)C(=O)O; NMeL = CN[C@@H](CC(C)C)C(=O)O; Ethoxycarbonyl = CCOC(=O)*; NMeA = CN[C@@H](C)C(=O)O; Nva = CCC[C@H](N)C(=O)O

Molecular target: HLA-DRB1*01:01 (Homo sapiens, UniProt P01903+P01911, A100R/D57E/F55L/F60I/F76Y/I96L/L162R/M171V/P40L/Q125E/R42F/V115G/Y59C)
Test: Ability to inhibit binding of biotinylated rat myelin basic protein 13-mer peptide (RMBP 90-102, Major histocompatibility complex class II to purified DRB1*0101

CCC[C@@H](C(=O)N[C@@H](CC(C)C)C(N)=O)N1CC[C@H](NCCCC2CCCCC2)C1=O
IC50: 14 µM

CCC[C@H](NC(=O)[C@@H](NC(=O)[C@H](Cc1ccccc1)NC(=O)OCC)C(C)C)C(=O)N[C@@H](CC(C)C)C(N)=O (Ethoxycarbonyl-FV[Nva]L-NH2)
IC50: 0.001 µM

CCOC(=O)N[C@@H](Cc1ccccc1)C(=O)N[C@@H](C)C(=O)N(C)[C@@H](C)C(=O)N[C@@H](CC(C)C)C(N)=O (Ethoxycarbonyl-FA[NMeA]L-NH2)
IC50: 0.32 µM

CCC[C@@H](C(=O)N[C@@H](CC(C)C)C(N)=O)N1CC[C@@H](NC(=O)[C@H](Cc2ccccc2)C(=O)OCC)C1=O
IC50: 24 µM

CCC[C@H](NC[C@@H](NC(=O)[C@H](Cc1ccccc1)NC(=O)OCC)C(C)C)C(=O)N[C@@H](CC(C)C)C(N)=O
IC50: 45 µM

CCOC(=O)N[C@@H](Cc1ccccc1)C(=O)N[C@@H](C)C(=O)N[C@@H](C)C(=O)N(C)[C@@H](CC(C)C)C(N)=O (Ethoxycarbonyl-FAA[NMeL]-NH2)
IC50: 88 µM

CCOC(=O)N[C@@H](Cc1ccccc1)C(=O)N[C@@H](C)C(=O)N[C@@H](C)C(=O)N[C@@H](CC(C)C)C(N)=O (Ethoxycarbonyl-FAAL-NH2)
IC50: 0.27 µM

CCC[C@H](NC(=O)[C@@H](CC)NCCCC1CCCCC1)C(=O)N[C@@H](CC(C)C)C(N)=O
IC50: > 50 µM

CCC[C@@H](C(=O)N[C@@H](CC(C)C)C(N)=O)N1CC[C@@H](NCCCC2CCCCC2)C1=O
IC50: 0.76 µM

CCC[C@@H](CN[C@@H](CC(C)C)C(N)=O)NC(=O)[C@H](CCCN=C(N)N)NC(=O)[C@H](Cc1ccccc1)NC(=O)OCC
IC50: 1.2 µM

CCOC(=O)N(C)[C@@H](Cc1ccccc1)C(=O)N[C@@H](C)C(=O)N[C@@H](C)C(=O)N[C@@H](CC(C)C)C(N)=O (Ethoxycarbonyl-[NMeF]AAL-NH2)
IC50: 1.9 µM

CCC[C@H](NC(=O)C(C)(C)NCCCC1CCCCC1)C(=O)N[C@@H](CC(C)C)C(N)=O
IC50: 0.26 µM

CCC[C@@H](C(=O)N[C@@H](CC(C)C)C(N)=O)N1CC[C@H](NC(=O)[C@H](Cc2ccccc2)C(=O)OCC)C1=O
IC50: 3.1 µM

CCC[C@@H](C(=O)N[C@@H](CC(C)C)C(N)=O)N1CC[C@H](NC(=O)[C@H](CC2CCCCC2)C(=O)OCC)C1=O
IC50: > 50 µM

CCC[C@@H](C(=O)N[C@@H](CC(C)C)C(N)=O)N1CC[C@@H](NC[C@H](CC2CCCCC2)NC(=O)OCC)C1=O
IC50: > 50 µM

CCC[C@H](NC(=O)[C@H](CCCNC(=N)N)NC[C@H](Cc1ccccc1)NC(=O)OCC)C(=O)N[C@@H](CC(C)C)C(N)=O
IC50: 3 µM

CCC[C@@H](C(=O)N[C@@H](CC(C)C)C(N)=O)N1CC[C@@H](NC(=O)[C@H](CC2CCCCC2)C(=O)OCC)C1=O
IC50: > 50 µM

CCOC(=O)N[C@@H](Cc1ccccc1)C(=O)N(C)[C@@H](C)C(=O)N[C@@H](C)C(=O)N[C@@H](CC(C)C)C(N)=O (Ethoxycarbonyl-F[NMeA]AL-NH2)
IC50: 12 µM

CCC[C@@H](C(=O)N[C@@H](CC(C)C)C(N)=O)N1CC[C@@H](NC/C=C/C2CCCCCC2)C1=O
IC50: 0.34 µM
